Our source for the MIC90 values is patent publication US20080200442A1, “Compositions and Methods for Treating, Reducing, Ameliorating, or Preventing Infections of the Ear or Upper Respiratory Tract” (priority 2007, published 2008).

The subject of the experiment is Ofloxacin-resistant Enterobacteriaceae. Nature of the experiment: organism not typed. The experiment is classed as cell-based.

Converted amounts (≈) assume the structure as drawn.

Take `NC1CCCCN(c2c(F)cc3c(=O)c(C(=O)O)cn(C4CC4)c3c2Cl)C1` (stereo not drawn) [Compound Having Formula III]: the MIC90 – broadly, an inhibitory concentration at the 90% level, which refers to growth in some studies and to a panel of isolates in others – is 16 µg/mL.

As to `CCn1cc(C(=O)O)c(=O)c2cc(F)c(N3CCNCC3)cc21` [Norfloxacin], the MIC90 is 128 µg/mL (≈ 401 µM).

Compound `CC1COc2c(N3CCN(C)CC3)c(F)cc3c(=O)c(C(=O)O)cn1c23` (stereo not drawn) [Ofloxacin] returned an MIC90 of 64 µg/mL (≈ 177 µM).
